Results from patent publication US20130225548A1, “Pyridine Derivative and Medicinal Agent” (NIPPON SHINYAKU CO., LTD., priority 2010, published 2013).
Counter-ions that a name gives are not always drawn.

Biological target: T1, Syk tyrosine kinase (Homo sapiens, UniProt P43405)
T1 construct: purchased Carna Biosciences, Inc
Assay: Test for Syk tyrosine kinase inhibitory activity (ELISA)
Assay type: biochemical
Conditions: Syk tyrosine kinase (Carna Biosciences), 25 μM ATP in substrate solution, 30° C. 1 hour, n=2; read-out: Evaluation (IC50, concentration inhibiting the tyrosine kinase activity at 50%)
Method: Test Example 1: Test for Syk Tyrosine Kinase Inhibitory Activity
1. Preparation of Test Substance
A test substance was prepared at 10 mM in dimethyl sulfoxide (DMSO), and further diluted with DMSO to concentrations of 1000, 300, 100, 30, 10, 3, 1, 0.3, 0.1, 0.03, and 0.01 μM. The resulting solutions were further diluted to 20-fold with an assay buffer, whereby test substance solutions were prepared. As a negative control, a solution obtained by diluting DMSO to 20-fold with an assay buffer was used. As the assay buffer, a buffer containing 15 mM Tris-HCl (pH 7.5), 0.01 (v/v) % Tween-20, and 1 mM dithiothreitol was used.
2. Measurement of Syk Tyrosine Kinase Inhibitory Activity
The activity was measured using the ELISA method. Each of the test substance solutions was added to a streptavidine-coated 96-well place (DELFIA Strip Plate 8×12 wells, PerkinElmer Co., Ltd,) at 10 μL per well (n=2), and a substrate solution (625 nM biotinylated peptide substrate, 25 μM ATP, 25 mM MgCl2, 15 mM Tris-HCl (pH 7.5), 0.01 (v/v) % Tween-20, 1 mM dithiothreitol) was added to the plate at 20 μL per well, and the resulting mixture was stirred. Finally, Syk tyrosine kinase (Carna Biosciences, Inc.) (previously diluted to 0.025 nM with the assay buffer) was added to the plate at 20 μL per well, and the resulting mixture was stirred. A reaction was allowed to proceed at 30° C. for 1 hour. After the plate was washed 4 times with a washing buffer (50 mM Tris-HCl (pH 7.5, 150 mM NaCl, 0.02 (v/v) % Tween-20), a blocking buffer (0.1% bovine serum albumin, 50 mM Tris-HCl (pH 7.5), 150 mM NaCl, 0.02 (v/v) % Tween-20) was added to the plate at 150 μL per well, and blocking was performed at 30° C. for 30 minutes. Then, the blocking buffer was removed, and a horseradish peroxidase-labeled anti-phosphorylated tyrosine antibody (BD Biosciences, Inc.) (previously diluted to 10000-fold with the blocking buffer) was added to the plate at 100 μL per well, and the plate was incubated at 30° C. for 30 minutes. After the plate was washed 4 times with the washing buffer, a 3,3′,5,5′-tetramethylbenzidine solution (Sigma-Aldrich Co., Ltd.) was added to the plate at 100 μL per well to develop the color for 10 minutes. The reaction was stopped by adding 0.1 M sulfuric acid at 100 μL per well. The absorbance at 450 nm was measured using a microplate reader (Multiskan F C, Thermo Fisher Scientific K,K.).
3. Analysis of Measurement Results
A non-linear regression analysis was performed for the measured absorbance using the SAS system (SAS institute. Inc.), and a concentration of each of the test substances: inhibiting the tyrosine kinase activity at 50% (IC50 ) was calculated. A case where IC50 is […] was evaluated as ***, a case where IC50 is 5 nM or more and less than 50 nM was evaluated as **, and a case where IC50 is 50 nM or more and less than 500 nM was evaluated as *, which are shown in the column of evaluation item.

| IC50 | SMILES |
| --- | --- |
| 5 to 50 nM | N#Cc1ccnc(Nc2cc(C3CC3)cc(-c3ccc(N4CC[C@@H](O)C4)nc3)n2)c1 [Example 22, 2-({4-cyclopropyl-6′-[(3R)-3-hydroxypyrrolidin-1-yl]-2,3′-bipyridin-6-yl}amino)pyridine-4-carbonitrile hydrochloride] |
| 5 to 50 nM | N#Cc1ccnc(Nc2cc(C3CC3)cc(-c3ccc(NCCCO)nc3)n2)c1 [Example 23, 2-({4-cyclopropyl-6′-[(3-hydroxypropyl)amino]-2,3′-bypyridin-6-yl}amino)pyridine-4-carbonitrile hydrochloride] |
| 5 to 50 nM | CC(C)(CO)CNc1ccc(-c2cc(C3CC3)cc(Nc3cc(C#N)ccn3)n2)cn1 [Example 24, 2-({4-cyclopropyl-6′-[(3-hydroxy-2,2-dimethylpropyl)amino]-2,3′-bipyridin-6-yl}amino)pyridine-4-carbonitrile hydrochloride] |
| 5 to 50 nM | N#Cc1ccnc(Nc2cc(C3CC3)cc(-c3ccc(N4CC[C@H](O)C4)nc3)n2)c1 [Example 25, 2-({4-cyclopropyl-6′-[(3S)-3-hydroxypyrrolidin-1-yl]-2,3′-bipyridin-6-yl}amino)pyridine-4-carbonitrile hydrochloride] |
| 5 to 50 nM | N#Cc1ccnc(Nc2cc(C3CC3)cc(-c3ccc(N4CCC(CO)CC4)nc3)n2)c1 [Example 26, 2-({4-cyclopropyl-6′-[4-(hydroxymethyl)piperidin-1yl]-2,3′-bipyridin-6-yl}amino)pyridine-4-carbonitrile hydrochloride] |
| 5 to 50 nM | N#Cc1ccnc(Nc2cc(C3CC3)cc(-c3ccc(N4CCSCC4)nc3)n2)c1 [Example 27, 2-{[4-cyclopropyl-6′-(thiomorphoiln-4-yl)-2,3′-bipyridin-6-yl]amino}pyridine-4-carbonitrile hydrochloride] |
| 5 to 50 nM | N#Cc1ccnc(Nc2cc(C3CC3)cc(-c3ccc(N4CCC(N)CC4)nc3)n2)c1 [Example 28, 2-{[6′-(4-aminopiperidin-1-yl)-4-cyclopropyl-2,3′-bipyridin-6-yl]amino}pyridine-4-carbonitrile dihydrochloride] |
| 5 to 50 nM | CNC1CCN(c2ccc(-c3cc(C4CC4)cc(Nc4cc(C#N)ccn4)n3)cn2)CC1 [Example 29, 2-({4-cyclopropyl-6′-[4-(methylamino)piperidin-1-yl]-2,3′-bipyridin-6-yl}amino)pyridine-4-carbonitrile dihydrochloride] |
| 50 to 500 nM | N#Cc1ccnc(Nc2cc(C3CC3)cc(-c3ccc(N4CCC(F)CC4)nc3)n2)c1 [Example 30, 2-{[4-cyclopropyl-6′-(4-fluoropiperidin-1-yl)-2,3′-bipyridin-6-yl]amino}pyridine-4-carbonitrile hydrochloride] |
| 5 to 50 nM | N#Cc1ccnc(Nc2cc(C3CC3)cc(-c3ccc(N(CCO)CCO)nc3)n2)c1 [Example 31, 2-({6′-[bis(2-hydroxyethyl)amino]-4-cyclopropyl-2,3′-bipyridin-6-yl}amino)pyridine-4-carbonitrile hydrochloride] |
| 5 to 50 nM | N#Cc1ccnc(Nc2cc(C3CC3)cc(-c3ccc(N4CCCNCC4)nc3)n2)c1 [Example 32, 2-{[4-cyclopropyl-6′-(1,4-diazepan-1-yl)-2,3′-bipyridin-6-yl]amino}pyridine-4-carbonitrile dihydrochloride] |
| 5 to 50 nM | N#Cc1ccnc(Nc2cc(C3CC3)cc(-c3ccc(N4CCC[C@H](O)C4)nc3)n2)c1 [Example 33, 2-({4-cyclopropyl-6′-[(3S)-3-hydroxypiperidin-1-yl]-2,3′-bipyridin-6-yl}amino)pyridine-4-carbonitrile hydrochloride] |
| 5 to 50 nM | N#Cc1ccnc(Nc2cc(C3CC3)cc(-c3ccc(N4CCC[C@@H](O)C4)nc3)n2)c1 [Example 34, 2-({4-cyclopropyl-6′-[(3R)-3-hydroxypiperidin-1-yl]-2,3′-bipyridin-6-yl}amino)pyridine-4-carbonitrile hydrochloride] |
